From patent US12310946B2, “Pharmaceutical composition for oral administration of edaravone and method of administering same” (MITSUBISHI TANABE PHARMA CORPORATION, priority 2020, dated 2025)

Tests used:
[1] = Clinical study #3: PK of edaravone oral formulation (formula #3), fasted vs after high-fat, standard or light meal; analysis of variance; format: in vivo, human; details: 105 mg oral; for Cmax Max: in ng/mL; for AUC(0-inf) / Cmax / Tmax / half-life: male, human, plasma, po, 105 mg
Protocol: Effects of meal consumption before administration of the edaravone oral formulation on the pharmacokinetics of edaravone were evaluated. Specifically, clinical studies #1, #2, and #3 described below were conducted on separate days in Japanese healthy adult male subjects. In each of clinical studies #1, #2, and #3, one dose each of edaravone oral formulations (edaravone suspensions) of formulas #1, #2, and #3 shown in Table 1 below were used respectively and administered orally once during the study period. For each clinical study, a reference study was conducted (reference example), in which the edaravone oral formulation was administered in fasted conditions as described below, and in each clinical study and the corresponding reference study, the edaravone oral formulation was each administered to the same subjects.
For the high-fat meal, a meal with total calories per meal of 800 to 1000 kilocalories and calorie intake from lipid of 50% was used. For the standard meal, a meal with total calories per meal of 400 to 500 kilocalories and calorie intake from lipid of 25% was used. For the light meal, a liquid-type nutritional supplement with total calories per meal of 250 kilocalories (enteral nutritional supplement: Ensure Liquid (trade name)) was used.
As examples, the edaravone oral formulation (formula #3) was administered orally to each subject of 8 hours after high-fat meal consumption, 4 hours after standard meal consumption, and 2 hours after light meal consumption. Blood samples were each collected before the administration, and 5 minutes, 15 minutes, 30 minutes, 45 minutes, 1 hour, 1.5 hours, 2 hours, 4 hours, 6 hours, 8 hours, 10 hours, 12 hours, 24 hours, 36 hours, and 48 hours after the administration, and the concentrations of unchanged edaravone in plasma were measured. In addition, as a comparative example, the edaravone oral formulation was administered orally to the same subjects 2 hours after standard meal consumption, blood samples were collected, and the concentrations of unchanged edaravone in plasma were measured in the same manner. On the other hand, as a reference example, the edaravone oral formulation was administered orally to the same subjects in fasted conditions, blood samples were collected, and the concentrations of unchanged edaravone in plasma were measured in the same manner. For the administration in fasted conditions, the edaravone oral formulation was administered orally after a lapse of 10 hours or longer from the previous meal consumption. None of the subjects consumed a next meal until the blood sample collection 4 hours after the administration was completed.
That is, from the results of the edaravone PK parameters, an analysis of variance was conducted on the AUC and Cmax in consideration of the meal condition. The spaghetti plots in FIG. 1 show results from individual subjects, in which results from the same subjects are connected with lines between results in the administration in fasted conditions and results in the postprandial administration.

[2] = Clinical study #11: PK of edaravone oral formulation (formula #3) via nasopharyngeal gastric tube vs oral in healthy adults; format: in vivo, human; details: for AUC(0-inf) / Cmax / AUC / half-life / Tmax: human, plasma; for AUC(0-inf) / Cmax: 105 mg; for Tmax: read-out: tmax (median)
Protocol: Pharmacokinetics of edaravone in administration of the edaravone oral formulation via a PEG tube was evaluated in 36 healthy adults. Specifically, performing gastrostomy in healthy adults is difficult, thus a nasopharyngeal gastric tube (NG tube), which allows the administration into the stomach via a tube in the same manner, was used as a model of administration via a percutaneous endoscopic gastrostomy tube (PEG tube), and a clinical study #11 described below was conducted.
The edaravone oral formulation (#3) was administered via a nasopharyngeal gastric tube (NG tube) to the subject group in fasted conditions after a lapse of 10 hours or longer from consumption of a meal. In the administration via an NG tube, first, 100 mL of lukewarm water was injected through an NG tube 1 hour before the administration of the edaravone oral formulation, and 10 mL of lukewarm water was injected through an NG tube immediately before the administration. Then, the edaravone oral formulation was administered to the NG tube, and further 30 mL of water was injected through the NG tube to wash in the edaravone oral formulation. Blood samples were each collected before the administration, and 5 minutes, 15 minutes, 30 minutes, 45 minutes, 1 hour, 1.5 hours, 2 hours, 4 hours, 6 hours, 8 hours, 10 hours, 12 hours, 24 hours, 36 hours, and 48 hours after the administration, and the concentrations of unchanged edaravone in plasma were measured. As a reference example, the same edaravone oral formulation was administered orally to the same subjects, blood samples were collected, and the concentrations of unchanged edaravone in plasma were measured in the same manner. For the oral administration, the edaravone oral formulation was administered orally after a lapse of 10 hours or longer from the previous meal consumption. None of the subjects consumed a next meal until the blood sample collection 4 hours after the administration was completed. In addition, results of an analysis of variance conducted on the AUC and Cmax in consideration of the meal condition are shown in Table 14 below.

[3] = 2 h after standard meal vs fasted
[4] = 4 h after standard meal vs fasted
[5] = 8 h after high-fat meal vs fasted
[6] = formula #3, 2 h after light meal, mean (n = 16)
[7] = formula #3, 2 h after standard meal, mean (n = 16)
[8] = formula #3, 4 h after standard meal, mean (n = 16)
[9] = formula #3, 8 h after high-fat meal, mean (n = 16)
[10] = formula #3, fasted, mean (n = 16)
[11] = Nasopharyngeal gastric tube / Oral, least squares mean ratio
[12] = other: nasopharyngeal gastric tube (NG tube), formula #3 (105 mg), Nasopharyngeal gastric tube, fasted (N = 36), mean
[13] = formula #3 (105 mg), Oral, fasted (N = 36), mean

change in the AUC in comparison with fasted ([1]; 2 h after light meal vs fasted): no decrease and →
change in the Cmax in comparison with fasted ([1]; 2 h after light meal vs fasted): no decrease and →
decrease in the AUC in comparison with fasted [1, 3]: (21% ↓)
decrease in the Cmax in comparison with fasted [1, 3]: (45% ↓)
Cmax Min ([1]; 2 hours after light meal): 388 ng/mL
Cmax Max ([1]; 2 hours after light meal): 3237
change in the AUC in comparison with fasted [1, 4]: no decrease and →
change in the Cmax in comparison with fasted [1, 4]: no decrease and →
Cmax Min ([1]; 4 hours after standard meal): 642 ng/mL
Cmax Max ([1]; 4 hours after standard meal): 4286
change in the AUC in comparison with fasted [1, 5]: no decrease and →
change in the Cmax in comparison with fasted [1, 5]: no decrease and →
Cmax Min ([1]; 8 hours after high-fat meal): 595 ng/mL
Cmax Max ([1]; 8 hours after high-fat meal): 5270
Cmax Min ([1]; fasted): 797 ng/mL
Cmax Max ([1]; fasted): 4816
AUC(0-inf) ([1]; 2 hours after light meal, analysis of variance, read-out: AUC0-∞ Least-square mean): 1880 ng·h/mL
Cmax ([1]; 2 hours after light meal, analysis of variance, read-out: Cmax Least-square mean): 1660 ng/mL
Cmax ([1]; 2 hours after light meal, read-out: Cmax Median): 1960 ng/mL
AUC(0-inf) ([1]; 4 hours after standard meal, analysis of variance, read-out: AUC0-∞ Least-square mean): 1990 ng·h/mL
Cmax ([1]; 4 hours after standard meal, analysis of variance, read-out: Cmax Least-square mean): 1760 ng/mL
Cmax ([1]; 4 hours after standard meal, read-out: Cmax Median): 1740 ng/mL
AUC(0-inf) ([1]; 8 hours after high-fat meal, analysis of variance, read-out: AUC0-∞ Least-square mean): 2120 ng·h/mL
Cmax ([1]; 8 hours after high-fat meal, analysis of variance, read-out: Cmax Least-square mean): 2190 ng/mL
Cmax ([1]; 8 hours after high-fat meal, read-out: Cmax Median): 2240 ng/mL
Cmax ([1]; fasted and each postprandial administration alike, read-out: Cmax, median of values of each subject): ~2000 ng/mL
Cmax ([1]; fasted and each postprandial administration alike, read-out: Cmax, range of values of each subject): 1000 to 5000 ng/mL
AUC(0-inf) ([1]; fasted, analysis of variance, read-out: AUC0-∞ Least-square mean): 2070 ng·h/mL
Cmax ([1]; fasted, analysis of variance, read-out: Cmax Least-square mean): 2020 ng/mL
Cmax ([1]; fasted, read-out: Cmax Median): 1990 ng/mL
Tmax [1, 6]: 24.6 min
half-life [1, 6]: 439 min
AUC(0-inf) ([1]; formula #3, 2 h after light meal, mean (n = 16), read-out: AUC0-∞): 1960 ng·h/mL
Cmax ([1]; formula #3, 2 h after light meal, mean (n = 16), read-out: Cmax): 1900 ng/mL
Tmax [1, 7]: 37.8 min
half-life [1, 7]: 675 min
AUC(0-inf) ([1]; formula #3, 2 h after standard meal, mean (n = 16), read-out: AUC0-∞): 1720 ng·h/mL
Cmax ([1]; formula #3, 2 h after standard meal, mean (n = 16), read-out: Cmax): 1280 ng/mL
Tmax [1, 8]: 26.4 min
half-life [1, 8]: 543 min
AUC(0-inf) ([1]; formula #3, 4 h after standard meal, mean (n = 16), read-out: AUC0-∞): 2070 ng·h/mL
Cmax ([1]; formula #3, 4 h after standard meal, mean (n = 16), read-out: Cmax): 2020 ng/mL
Tmax [1, 9]: 21.6 min
half-life [1, 9]: 443 min
AUC(0-inf) ([1]; formula #3, 8 h after high-fat meal, mean (n = 16), read-out: AUC0-∞): 2210 ng·h/mL
Cmax ([1]; formula #3, 8 h after high-fat meal, mean (n = 16), read-out: Cmax): 2520 ng/mL
Tmax [1, 10]: 22.8 min
half-life [1, 10]: 490 min
AUC(0-inf) ([1]; formula #3, fasted, mean (n = 16), read-out: AUC0-∞): 2160 ng·h/mL
Cmax ([1]; formula #3, fasted, mean (n = 16), read-out: Cmax): 2320 ng/mL
AUC0-∞ Ratio [2, 11]: 0.981
Cmax Ratio [2, 11]: 1.052
AUC(0-inf) ([2]; other: nasopharyngeal gastric tube (NG tube), Nasopharyngeal gastric tube, analysis of variance, read-out: AUC0-∞ Least-square mean): 2500 ng·h/mL
Cmax ([2]; other: nasopharyngeal gastric tube (NG tube), Nasopharyngeal gastric tube, analysis of variance, read-out: Cmax Least-square mean): 2430 ng/mL
AUC(0-inf) ([2]; other: nasopharyngeal gastric tube (NG tube), formula #3 (105 mg), Nasopharyngeal gastric tube, fasted (N = 36), mean, read-out: AUC0-∞): 2620 ng·h/mL
Cmax ([2]; other: nasopharyngeal gastric tube (NG tube), formula #3 (105 mg), Nasopharyngeal gastric tube, fasted (N = 36), mean, read-out: Cmax): 2780 ng/mL
AUC [2, 12]: 2590 ng·h/mL
half-life [2, 12]: 812 min
Tmax ([2]; other: nasopharyngeal gastric tube (NG tube), formula #3 (105 mg), Nasopharyngeal gastric tube, fasted (N = 36)): 15 min
AUC(0-inf) ([2]; po, Oral, analysis of variance, read-out: AUC0-∞ Least-square mean): 2550 ng·h/mL
Cmax ([2]; po, Oral, analysis of variance, read-out: Cmax Least-square mean): 2310 ng/mL
AUC(0-inf) ([2]; po, formula #3 (105 mg), Oral, fasted (N = 36), mean, read-out: AUC0-∞): 2660 ng·h/mL
Cmax ([2]; po, formula #3 (105 mg), Oral, fasted (N = 36), mean, read-out: Cmax): 2470 ng/mL
AUC [2, 13]: 2610 ng·h/mL
half-life [2, 13]: 1290 min
Tmax ([2]; formula #3 (105 mg), Oral, fasted (N = 36)): 30 min
Compound: CC1=NN(c2ccccc2)C(=O)C1 [Edaravone, 3-methyl-1-phenyl-2-pyrazolin-5-one]
